Experimental data from ChEMBL document CHEMBL3585290, “Synthesis and biological evaluation of novel bivalent -carbolines as potential antitumor agents” (Medchemcomm, 2014).

How the values were obtained:
SK-OV-3 = experiment: Cytotoxicity against human SKOV3 cells after 48 hrs by MTT assay; format: functional, cell-based; details: SK-OV-3, 48 h
[1] = Cytotoxicity against human BGC823 cells after 48 hrs by MTT assay; format: functional, cell-based; details: BGC-823, 48 h
KB = experiment: Cytotoxicity against human KB cells after 48 hrs by MTT assay; format: functional, cell-based
A-375 = experiment: Cytotoxicity against human A375 cells after 48 hrs by MTT assay; format: functional, cell-based; details: A-375, 48 h
[2] = Acute toxicity in ip dosed C57BL/6 mouse measured for 14 days; format: organism-based; details: in vivo
769-P = experiment: Cytotoxicity against human 769-P cells after 48 hrs by MTT assay; format: functional, cell-based
[3] = test system: Lewis lung carcinoma cell line; experiment: Antitumor activity against mouse LLC cells implanted in mouse assessed as tumor growth inhibition at 76.9 umol/kg, ip qd administered for 7 days starting 24 hrs post tumor implantation measured after day 21 relative to control; format: functional; details: read-out: TGI
CT26 [4] = experiment: Antitumor activity against mouse CT26 cells implanted in mouse assessed as tumor growth inhibition at 76.9 umol/kg, ip qd administered for 7 days starting 24 hrs post tumor implantation measured after day 21 relative to control; format: functional; details: read-out: TGI
[5] = test system: Lewis lung carcinoma cell line; experiment: Antitumor activity against mouse LLC cells implanted in mouse assessed as tumor growth inhibition at 32.3 umol/kg, ip qd administered for 7 days starting 24 hrs post tumor implantation measured after day 21 relative to control; format: functional; details: read-out: TGI
CT26 [6] = experiment: Antitumor activity against mouse CT26 cells implanted in mouse assessed as tumor growth inhibition at 32.3 umol/kg, ip qd administered for 7 days starting 24 hrs post tumor implantation measured after day 21 relative to control; format: functional; details: read-out: TGI
CT26 [7] = experiment: Antitumor activity against mouse CT26 cells implanted in mouse assessed as tumor growth inhibition at 26.9 umol/kg, ip qd administered for 7 days starting 24 hrs post tumor implantation measured after day 21 relative to control; format: functional; details: read-out: TGI
[8] = test system: Lewis lung carcinoma cell line; experiment: Antitumor activity against mouse LLC cells implanted in mouse assessed as tumor growth inhibition at 26.9 umol/kg, ip qd administered for 7 days starting 24 hrs post tumor implantation measured after day 21 relative to control; format: functional; details: read-out: TGI
CT26 [9] = experiment: Antitumor activity against mouse CT26 cells implanted in mouse assessed as tumor growth inhibition at 11.1 umol/kg, ip qd administered for 7 days starting 24 hrs post tumor implantation measured after day 21 relative to control; format: functional; details: read-out: TGI
[10] = test system: Lewis lung carcinoma cell line; experiment: Antitumor activity against mouse LLC cells implanted in mouse assessed as tumor growth inhibition at 11.1 umol/kg, ip qd administered for 7 days starting 24 hrs post tumor implantation measured after day 21 relative to control; format: functional; details: read-out: TGI
[11] = test system: Lewis lung carcinoma cell line; experiment: Antitumor activity against mouse LLC cells implanted in mouse assessed as tumor growth inhibition at 223.8 umol/kg, ip qd administered for 7 days starting 24 hrs post tumor implantation measured after day 21 relative to control; format: functional; details: read-out: TGI
CT26 [12] = experiment: Antitumor activity against mouse CT26 cells implanted in mouse assessed as tumor growth inhibition at 223.8 umol/kg, ip qd administered for 7 days starting 24 hrs post tumor implantation measured after day 21 relative to control; format: functional; details: read-out: TGI

SMILES | IC50 (SK-OV-3) | IC50 [1] | IC50 (KB) | IC50 (A-375) | IC50 (769-P) | also measured
Cc1nc(C(=O)OCCCOC(=O)c2cc3c4ccccc4n(C)c3c(C)n2)cc2c3ccccc3n(C)c12 | 21 µM | 19.5 µM | 18.4 µM | 16.6 µM | 16.3 µM | LD50 at 336 h [2]: 385 µmol/kg; inhibition in vivo at 76.9 µmol/kg [3]: 28.1%; inhibition in vivo at 76.9 µmol/kg (CT26 [4]): 23.6%
Cc1nc(C(=O)OCCCCCCOC(=O)c2cc3c4ccccc4n(C)c3c(C)n2)cc2c3ccccc3n(C)c12 | > 200 µM | > 200 µM | 165 µM | 82.6 µM | 28.3 µM | –
Cc1nc(C(=O)OCCCCCCCCCCOC(=O)c2cc3c4ccccc4n(C)c3c(C)n2)cc2c3ccccc3n(C)c12 | > 200 µM | > 200 µM | 198 µM | 125 µM | 42.9 µM | –
CCn1c2ccccc2c2cc(C(=O)OCCCCCCOC(=O)c3cc4c5ccccc5n(CC)c4c(C)n3)nc(C)c21 | > 200 µM | > 200 µM | 16.5 µM | 32.9 µM | 43.1 µM | –
CCn1c2ccccc2c2cc(C(=O)OCCCCCCCCOC(=O)c3cc4c5ccccc5n(CC)c4c(C)n3)nc(C)c21 | 86.4 µM | > 200 µM | > 200 µM | 86.3 µM | 21.7 µM | –
CCn1c2ccccc2c2cc(C(=O)OCCCCCCCCCOC(=O)c3cc4c5ccccc5n(CC)c4c(C)n3)nc(C)c21 | > 200 µM | > 200 µM | 56.9 µM | > 200 µM | 10.3 µM | –
CCCCn1c2ccccc2c2cc(C(=O)OCCCCOC(=O)c3cc4c5ccccc5n(CCCC)c4cn3)ncc21 | 123 µM | 116 µM | 89 µM | > 200 µM | 42.6 µM | –
CCCCn1c2ccccc2c2cc(C(=O)OCCCCCOC(=O)c3cc4c5ccccc5n(CCCC)c4cn3)ncc21 | > 200 µM | > 200 µM | 53.9 µM | > 200 µM | 32.9 µM | –
CCCCn1c2ccccc2c2cc(C(=O)OCCCCCCOC(=O)c3cc4c5ccccc5n(CCCC)c4cn3)ncc21 | > 200 µM | 43.2 µM | 15.6 µM | 18.2 µM | 112 µM | inhibition in vivo at 32.3 µmol/kg [5]: 64.2%; inhibition in vivo at 32.3 µmol/kg (CT26 [6]): 33.8%; LD50 at 336 h [2]: 162 µmol/kg
CCCCn1c2ccccc2c2cc(C(=O)OCCCCCCCCOC(=O)c3cc4c5ccccc5n(CCCC)c4cn3)ncc21 | 124 µM | 68.9 µM | 19.8 µM | 146 µM | 210 µM | –
CCCCn1c2ccccc2c2cc(C(=O)OCCCCCCCCCOC(=O)c3cc4c5ccccc5n(CCCC)c4cn3)ncc21 | > 200 µM | > 200 µM | 26.4 µM | 89.6 µM | 115 µM | –
CCCCn1c2ccccc2c2cc(C(=O)OCCCCCCCCCCOC(=O)c3cc4c5ccccc5n(CCCC)c4cn3)ncc21 | > 200 µM | 168 µM | 45.2 µM | > 200 µM | 89.2 µM | –
CCCCn1c2ccccc2c2cc(C(=O)OCCCCCCOC(=O)c3cc4c5ccccc5n(CCCC)c4c(C)n3)nc(C)c21 | > 200 µM | > 200 µM | 54.6 µM | > 200 µM | 60.5 µM | –
CCCCn1c2ccccc2c2cc(C(=O)OCCCCCCCOC(=O)c3cc4c5ccccc5n(CCCC)c4c(C)n3)nc(C)c21 | 71.5 µM | > 200 µM | > 200 µM | > 200 µM | 95.9 µM | –
CCCCn1c2ccccc2c2cc(C(=O)OCCCCCCCCCCOC(=O)c3cc4c5ccccc5n(CCCC)c4c(C)n3)nc(C)c21 | > 200 µM | > 200 µM | > 200 µM | 42 µM | 114 µM | –
O=C(OCCCCOC(=O)c1cc2c3ccccc3n(Cc3ccccc3)c2cn1)c1cc2c3ccccc3n(Cc3ccccc3)c2cn1 | > 200 µM | 43.6 µM | > 200 µM | 7.9 µM | 45.4 µM | –

SMILES | IC50 (SK-OV-3) | IC50 [1] | IC50 (KB) | IC50 (A-375) | IC50 (769-P) | also measured
O=C(OCCCCCCOC(=O)c1cc2c3ccccc3n(Cc3ccccc3)c2cn1)c1cc2c3ccccc3n(Cc3ccccc3)c2cn1 | 27.8 µM | 164 µM | 15.7 µM | > 200 µM | 46.8 µM | –
O=C(OCCCCCCCCOC(=O)c1cc2c3ccccc3n(Cc3ccccc3)c2cn1)c1cc2c3ccccc3n(Cc3ccccc3)c2cn1 | > 200 µM | > 200 µM | 162 µM | > 200 µM | 68.6 µM | –
Cc1nc(C(=O)OCCCCCOC(=O)c2cc3c4ccccc4n(Cc4ccccc4)c3c(C)n2)cc2c3ccccc3n(Cc3ccccc3)c12 | > 200 µM | > 200 µM | 42.4 µM | 125 µM | 72.4 µM | –
Cc1nc(C(=O)OCCCCCCOC(=O)c2cc3c4ccccc4n(Cc4ccccc4)c3c(C)n2)cc2c3ccccc3n(Cc3ccccc3)c12 | > 200 µM | > 200 µM | 112 µM | > 200 µM | 64.7 µM | –
O=C(OCCCCCCOC(=O)c1cc2c3ccccc3n(Cc3cccc(Cl)c3)c2cn1)c1cc2c3ccccc3n(Cc3cccc(Cl)c3)c2cn1 | 19 µM | > 200 µM | 46.9 µM | > 200 µM | 21.9 µM | –
O=C(OCCCCCCCCCOC(=O)c1cc2c3ccccc3n(Cc3cccc(Cl)c3)c2cn1)c1cc2c3ccccc3n(Cc3cccc(Cl)c3)c2cn1 | > 200 µM | > 200 µM | 71.2 µM | > 200 µM | 145 µM | –
O=C(OCCCOC(=O)c1cc2c3ccccc3n(CCCc3ccccc3)c2cn1)c1cc2c3ccccc3n(CCCc3ccccc3)c2cn1 | > 200 µM | > 200 µM | 72.4 µM | > 200 µM | 95.6 µM | –
O=C(OCCCCCCOC(=O)c1cc2c3ccccc3n(CCCc3ccccc3)c2cn1)c1cc2c3ccccc3n(CCCc3ccccc3)c2cn1 | 8.5 µM | > 200 µM | 56.4 µM | 14.4 µM | 29.4 µM | inhibition in vivo at 26.9 µmol/kg (CT26 [7]): 28.3%; LD50 at 336 h [2]: 135 µmol/kg; inhibition in vivo at 26.9 µmol/kg [8]: 53.5%
O=C(OCCCCCCCOC(=O)c1cc2c3ccccc3n(CCCc3ccccc3)c2cn1)c1cc2c3ccccc3n(CCCc3ccccc3)c2cn1 | > 200 µM | > 200 µM | 78.9 µM | 143 µM | 43.5 µM | –
Cc1nc(C(=O)OCCCCCCOC(=O)c2cc3c4ccccc4n(CCCc4ccccc4)c3c(C)n2)cc2c3ccccc3n(CCCc3ccccc3)c12 | 73.4 µM | > 200 µM | > 200 µM | > 200 µM | 21.8 µM | –
Cc1nc(C(=O)OCCCCCCCCCOC(=O)c2cc3c4ccccc4n(CCCc4ccccc4)c3c(C)n2)cc2c3ccccc3n(CCCc3ccccc3)c12 | > 200 µM | > 200 µM | 50.7 µM | > 200 µM | 108 µM | –
CCn1c2ccccc2c2cc(C(=O)OCCCCCCOC(=O)c3cc4c5ccccc5n(CC)c4c(-c4ccc(OC)cc4)n3)nc(-c3ccc(OC)cc3)c21 | > 200 µM | > 200 µM | 89.2 µM | > 200 µM | 65.9 µM | –
COc1ccc(-c2nc(C(=O)OCCCCCCOC(=O)c3cc4c5ccccc5n(CCCc5ccccc5)c4c(-c4ccc(OC)cc4)n3)cc3c4ccccc4n(CCCc4ccccc4)c23)cc1 | > 200 µM | 140 µM | 218 µM | 132 µM | 95.5 µM | inhibition in vivo at 11.1 µmol/kg (CT26 [9]): 15.1%; LD50 at 336 h [2]: 55.8 µmol/kg; inhibition in vivo at 11.1 µmol/kg [10]: 24.6%
CCn1c2ccccc2c2cc(C(=O)OCCCCCCOC(=O)c3cc4c5ccccc5n(CC)c4c(-c4cc(OC)c(OC)c(OC)c4)n3)nc(-c3cc(OC)c(OC)c(OC)c3)c21 | 47.4 µM | 159 µM | 20.7 µM | 40.4 µM | 10.9 µM | –
COc1cc(-c2nc(C(=O)OCCCCCCOC(=O)c3cc4c5ccccc5n(CCCc5ccccc5)c4c(-c4cc(OC)c(OC)c(OC)c4)n3)cc3c4ccccc4n(CCCc4ccccc4)c23)cc(OC)c1OC | > 200 µM | 168 µM | > 200 µM | 134 µM | 118 µM | –
CCCCn1c2ccccc2c2cc(C(=O)O)ncc21 | > 200 µM | 125 µM | 67.7 µM | 79.6 µM | 42.7 µM | inhibition in vivo at 223.8 µmol/kg [11]: 45.4%; inhibition in vivo at 223.8 µmol/kg (CT26 [12]): 18.7%; LD50 at 336 h [2]: 1120 µmol/kg
